Laboratory results: patent US9364496B2 (ONCOGENEX TECHNOLOGIES INC., priority 2013, dated 2016)
“And” between values parts separate entries of the source, which are not always exact repeats. Equal entries are not always repeated. “Also recorded” adds a separate entry of the source. Where two headings read alike, the source gives them in different places. Marks after values point to notes of the source that are not given here. Oligonucleotides are written 5' to 3', each unit as a sugar letter and its base; * is a phosphorothioate linkage, no mark a phosphodiester; rarer units and linkages stand in square brackets, end groups in braces. Plain capitals give the bases only. e = 2'-O-(2-methoxyethyl) (MOE); [5mC] = 5-methylcytosine; d = 2'-deoxy (DNA)

Assays:
[1] = Phase I healthy volunteer study TV1011-DDI-102, 640 mg custirsen; assay type: in vivo
From the text: Three subjects withdrew from the study due to these constitutional symptoms.

melanoma = assay type: in vivo, human; conditions: each group; loading doses then custirsen with a chemotherapeutic agent
From the text: At least 50 melanoma patients are separated into two groups.

NSCLC = assay type: in vivo, human; conditions: each group; loading doses then custirsen with a chemotherapeutic agent
From the text: At least 50 NSCLC patients are separated into two groups.

renal cancer = assay type: in vivo, human; conditions: each group; loading doses then custirsen with a chemotherapeutic agent
From the text: At least 50 renal cancer patients are separated into two groups.

bladder cancer = assay type: in vivo, human; conditions: each group; loading doses then custirsen with a chemotherapeutic agent
From the text: At least 50 bladder cancer patients are separated into two groups.

ovarian cancer = assay type: in vivo, human; conditions: each group; loading doses then custirsen with a chemotherapeutic agent
From the text: At least 50 ovarian cancer patients are separated into two groups.

[2] = in vivo
myeloma = assay type: in vivo, human; conditions: each group; loading doses then custirsen with a chemotherapeutic agent
From the text: At least 50 myeloma patients are separated into two groups.

[3] = in vivo; remark: listed apart in the source
[4] = system: RPMI 8226 (human myeloma) xenograft; test: In vivo activity of custirsen (TV-1011), different doses and regimens with Bortezomib, RPMI 8226 xenograft (Example 15); conditions: for volume / weight / % of baseline (weight) / Δ % (weight) / Δ weight: group 8: TV-1011 30 mg/kg qd*5, 40 mg/kg biwk
Method: 120 CB.17 SCID female mice, 4-6 weeks old, 16-20 grams, obtained from Harlan animal breeding center.
Cells (originated from ATCC) were cultured on RPMI medium. Cell suspension was centrifuged and resuspended in 50% Matrigel/HBSS to a final concentration of 7×10^7 cells/ml. The suspension was implanted s.c. in the right flank of the anesthetized mouse at a volume of 100 μl.
Seven ml saline were added to the original vial containing 3.5 mg powder resulting in 0.5 mg/ml. Three ml of this solution were added to 27 ml saline to receive 0.05 mg/ml concentration. […] 28.5 ml of 4 mg/ml were added to 9.5 saline to receive 3 mg/ml.
Mice were implanted subcutaneously, with 7×10^6 RPMI 8226 cells/mouse (in 50% Martigel/HBSS) on Day 0. On day 21, mice were sorted by the optimal average tumor volume (˜130 mm3) and were allocated into eight groups of 10 mice each.
The treatment started on day 21 post implant, 0.2 ml per 20 grams v/w.
[formula] The analysis of weight gain and tumor volume progression was made using one-way ANOVA followed by Tukey post-hoc comparisons.

[5] = in vivo; remark: listed apart in the source
clusterin = conditions: cited from earlier work
[6] = Custirsen up-titration with dexamethasone premedication, tolerability and ECG Holter (discussion); conditions: with or without premedication with dexamethasone
[7] = Phase I dose-escalation Study OGX-011-01, custirsen with neoadjuvant hormone therapy, prostate cancer patients; conditions: 40 mg to 640 mg custirsen, repeated doses with neoadjuvant hormone therapy
[8] = in vivo; remark: listed apart in the source
[9] = human, in vivo
lung cancer = assay type: in vivo, human; conditions: each group; loading doses then custirsen with a chemotherapeutic agent
From the text: At least 50 lung cancer patients are separated into two groups.

[10] = TV-1011 alone 30 mg/kg ip qd*5, then 40 mg/kg biwk, day 62
[11] = Day 21 (baseline), group Mean, n 10
[12] = Day 21 (baseline), individual animals
[13] = Day 28 vs Day 21, group Mean, n 10
[14] = Day 28 vs Day 21, individual animals
[15] = Day 33 vs Day 21, group Mean, n 10
[16] = Day 33 vs Day 21, individual animals
[17] = Day 41 vs Day 21, group Mean, n 10
[18] = Day 41 vs Day 21, individual animals
[19] = group mean, n=10, day block 1 of 3
[20] = group mean, n=10, day block 2 of 3
[21] = group mean, n=10, day block 3 of 3
[22] = individual animals, day block 1 of 3
[23] = individual animals, day block 2 of 3
[24] = individual animals, day block 3 of 3

## Custirsen: anti-clusterin antisense oligonucleotide CAGCAGCAGAGTCTTCATCAT, phosphorothioate backbone, 2′-O-methoxyethyl at nucleotides 1-4 and 18-21, 5-methylcytosines at 1, 4, 19 (antisense e[5mC]*eA*eG*e[5mC]*dA*dG*dC*dA*dG*dA*dG*dT*dC*dT*dT*dC*dA*eT*e[5mC]*eA*eT; listed as Homo sapiens)
[1]; human, in vivo
  time of peak of prolonged coagulation parameters after dose: around 48 hours
[1]; most subjects, starting a few hours after the first loading dose
  coagulation parameters (PTT and PT): Slightly prolonged
[1]; multiple 640 mg doses, after the first infusion
  AEs related to custirsen: 93 AEs
[1]; single and repeated doses of 640 mg custirsen, healthy volunteers
  deaths or other SAEs: No deaths or other SAEs were reported; also recorded: no SAEs
melanoma
  cancer condition of patients: improves
NSCLC
  cancer condition of patients: improves
Renal cancer
  cancer condition of patients: improves
Bladder cancer
  cancer condition of patients: improves
Ovarian cancer
  cancer condition of patients: improves
[2]
  incidence of the most common adverse events (fatigue, chills, nausea, pyrexia, etc.): more than 20 % of the patients
  occurrence of grade 3/4 renal toxicity: rare
myeloma
  cancer condition of patients: improves
[3]
  chills, patients: 35%
  fever, patients: 50%
  occurrence of grade 3/4 hepatic toxicity: rare
  severity of fever and chills/rigors: usually mild (grade 1-2)
  time of appearance of fever and chills/rigors after the infusion: 4 to 8 h
[4]; Custirsen 30 mg/kg qdx5 then 40 mg/kg biwk, alone
  efficacy, in words: very efficacious
[4]; Custirsen with Velcade, maintained vs loading only
  effect of continuous treatment versus loading only: dose-dependent and results in better outcome versus loading only
[4]; TV-1011 alone 30 mg/kg ip qd*5, then 40 mg/kg biwk, day 28
  Max BW (mean) reduction: −0.5%
[4]; [10]
  % TGI: 67%
  No. of CR: 0
  No. of PR: 1
  No. of TRD: 0
  No. og nTRD: 0
  Δ mean tumor volume, (mean ± se): 574 ± 118
[4]; TV-1011 alone 30 mg/kg ip qd*5, then 40 mg/kg biwk, day 62, listed as TV-1011
  % TGI: 67*** %
[4]; [11]
  volume: 129.3
  weight: 18.8
[4]; [12]
  volume: 107 and 113 and 116 and 119 and 123 and 128 and 131 and 138 and 147 and 172
  weight: 21.4 and 17.7 and 20.5 and 15.9 and 19.6 and 20.3 and 17.9 and 16.6 and 20.1 and 17.8
[4]; Day 28, group Mean, n 10
  % of baseline (weight): 99.5%
  volume: 158.1
  weight: 18.7
[4]; Day 28, individual animals
  % of baseline (weight): 98.0% and 104.0% and 102.6% and 95.2% and 96.9% and 94.4% and 103.0% and 98.7% and 98.3%
  volume: 78 and 127 and 114 and 149 and 180 and 204 (2×) and 159 and 175 and 193
  weight: 21.0 and 118.5 and 21.3 and 16.3 and 18.7 and 19.6 and 16.9 and 17.1 and 19.9 and 17.5
[4]; [13]
  Δ % (weight): −0.5%
  Δ weight: −0.1
[4]; [14]
  Δ % (weight): −2.0% and 4.4% and 4.0% and 2.6% and −4.8% and −3.1% and 5.6% and 3.0% and −1.3% and −1.7%
  Δ weight: −0.4 and 0.8 (2×) and 0.4 and −0.9 and −0.6 and −1.0 and 0.5 and −0.3 (2×)
[4]; Day 33, group Mean, n 10
  % of baseline (weight): 101.6%
  volume: 147.0
  weight: 19.1
[4]; Day 33, individual animals
  % of baseline (weight): 97.8% and 108.3% and 108.1% and 95.9% and 94.0% and 101.3% and 98.3% and 105.5% and 99.9% and 107.3%
  volume: 132 and 131 and 120 and 116 and 167 and 157 and 100 and 154 and 206 and 186
  weight: 20.9 and 19.2 and 22.1 and 15.2 and 18.4 and 20.5 and 17.6 and 17.5 and 20.1 and 19.1
[4]; [15]
  Δ % (weight): 1.6%
  Δ weight: 0.3
[4]; [16]
  Δ % (weight): −2.2% and 8.3% and 8.1% and −4.1% and −6.0% and 1.3% and −1.7% and 5.5% and −0.1% and 7.3%
  Δ weight: −0.5 and 1.5 and 1.7 and −0.6 and −1.2 and 0.3 and −0.3 and 0.9 and 0.0 and 1.3
[4]; Day 41, group Mean, n 10
  % of baseline (weight): 106.8%
  volume: 184.3
  weight: 20.0
[4]; Day 41, individual animals
  % of baseline (weight): 101.4% and 112.9% and 111.2% and 108.4% and 102.9% and 102.3% and 105.9% and 112.3% and 106.7% and 103.9%
  volume: 76 and 144 and 140 and 139 and 336 and 249 and 152 and 185 and 223 and 200
  weight: 21.7 and 20.0 and 22.8 and 17.2 and 20.2 and 20.7 and 18.9 and 18.7 and 21.5 and 18.5
[4]; [17]
  Δ % (weight): 6.8%
  Δ weight: 1.2
[4]; [18]
  Δ % (weight): 1.4% and 12.9% and 11.2% and 8.4% and 2.9% and 2.3% and 5.9% and 6.7% and 3.9%
  Δ weight: 0.3 and 2.3 (2×) and 1.3 (2×) and 0.6 and 0.5 and 1.1 and 2.0 and 0.7
[4]; [19]
  % of baseline (weight): 113.8%
  volume: 344.4
  Δ % (weight): 13.8%
  Δ weight: 2.5
[4]; group mean, n=10, day block 1 of 3 (day head not shown)
  weight: 21.3
[4]; [20]
  % of baseline (weight): 109.2%
  volume: 476.6
  weight: 20.4
  Δ % (weight): 9.2%
  Δ weight: 1.7
[4]; [21]
  % of baseline (weight): 111.5%
  volume: 702.9
  weight: 20.9
  Δ % (weight): 11.5%
  Δ weight: 2.1
[4]; [22]
  % of baseline (weight): 108.5% and 116.7% and 112.9% and 120.7% and 110.1% and 107.6% and 114.4% and 123.3% and 115.7% and 108.4%
  volume: 101 and 360 and 268 and 267 and 556 and 581 and 211 and 257 and 451 and 392
  Δ % (weight): 8.5% and 16.7% and 12.9% and 20.7% and 10.1% and 7.6% and 14.4% and 23.3% and 15.7% and 8.4%
  Δ weight: 1.8 and 3.0 and 2.6 (2×) and 3.3 and 2.0 and 1.5 (2×) and 3.9 and 3.2
[4]; individual animals, day block 1 of 3 (day head not shown)
  weight: 23.2 and 20.6 and 23.1 and 19.1 and 21.6 and 21.8 and 20.5 (2×) and 23.3 and 19.3
[4]; [23]
  % of baseline (weight): 103.3% and 116.7% and 109.7% and 122.9% and 103.1% and 104.0% and 106.1% and 114.0% and 108.4% and 103.7%
  volume: 106 and 638 (2×) and 463 and 399 and 767 and 663 and 257 and 246 and 588
  weight: 22.1 and 20.7 and 22.4 and 19.5 and 20.2 and 21.1 and 19.0 (2×) and 21.8 and 18.4
  Δ % (weight): 3.3% and 16.7% and 9.7% and 22.9% and 3.1% and 4.0% and 6.1% and 14.0% and 8.4% and 3.7%
  Δ weight: 0.7 (2×) and 3.0 and 2.0 and 3.6 and 0.6 and 0.8 and 1.1 and 2.3 and 1.7
[4]; [24]
  % of baseline (weight): 105.9% and 121.8% and 111.4% and 118.7% and 106.2% and 107.1% and 106.8% and 119.0% and 112.4% and 106.3%
  volume: 92 and 955 and 891 and 568 and 1324 and 804 and 379 and 273 and 1001 and 742
  weight: 22.7 and 21.5 and 22.8 and 18.8 and 20.8 and 21.7 and 19.1 and 19.8 and 22.6 and 18.9
  Δ % (weight): 5.9% and 21.8% and 11.4% and 18.7% and 6.2% and 7.1% and 6.8% and 19.0% and 12.4% and 6.3%
  Δ weight: 1.3 and 3.9 and 2.3 and 3.0 and 1.2 (2×) and 1.4 and 3.2 and 2.5 and 1.1
[5]
  grade-4 liver toxicity: no reports
  incidence of elevated liver function tests (ELFTs): higher incidence
clusterin
  expression of clusterin: potently regulated the expression of clusterin; also recorded: potently reduces the expression of clusterin
clusterin; human prostate, breast, ovarian, lung, renal, bladder, and melanoma cells
  sensitization of cancer cells to chemotherapy: sensitizes
[6]
  effect of up-titration (reduced loading doses) on constitutional syndrome / side effects: mitigated
[7]
  dose limiting toxicities, deaths, AEs leading to withdrawal: No dose limiting toxicities, deaths, or adverse events (AEs) leading to withdrawal were reported
[8]
  INR values: ≤ 1.5
  reports of grade 2 toxicity for PTT: 2 reports
[9]
  INR values: ≤ 1.5
  grade 1 increase in PTT, number: 1
  hepatic transaminase elevations: Grade 1 and 2
  incidence of elevated liver function tests (ELFTs): higher incidence
Lung cancer
  cancer condition of patients: improves
